Measured values: article PMC6963856, “Increases in Hydrophilicity and Charge on the Polar Face of Alyteserin 1c Helix Change its Selectivity towards Gram-Positive Bacteria” (Antibiotics, 2019)
Where no end group is shown, it is not given here.

Columns and labels:
[1] = system: E. coli ATCC25922; format: cell-based, Escherichia coli
Procedure: (§1) Antimicrobial assays were performed according to the Clinical and Laboratory Standards Institute, CLSI [45] with slight modifications. A bacterial culture in Mueller Hinton broth in exponential phase was diluted in Mueller Hinton broth until reaching an OD625 of 0.1 (approximately 1 × 10^8 CFU/mL). Then, this culture was diluted once more by a factor of 1:200. Subsequently, 90 µL of bacterial culture was incubated with 10 µL of peptide to reach a final inoculum of approximately 5 × 10^5 CFU/mL. The incubation time was 18–20 h in sterile 96-well plates at 37 °C. The peptides were applied at different serial dilutions (diluted in half) from 250 μM to 0.97 μM. As a negative control, phosphate-buffered saline (PBS; 138 mM NaCl, 3 mM KCl, 1.5 mM NaH2PO4, 8.1 mM Na2HPO4, pH 7.4) was used. After incubation, bacterial growth was visualized to obtain the minimum inhibitory concentration (MIC).

[2] = system: S. aureus ATCC25923; format: cell-based, Staphylococcus aureus
Procedure: as §1

[3] = system: human erythrocytes; details: cited from earlier work
Description: A peptide of 23 amino acid residues with a net charge of +2, Alyerserin-1c (WT), was isolated for the first time from the cutaneous secretions of the Alytes obstetricans toad. […] Furthermore, the three-dimensional structure of Alyteserin-1c was characterized as an extended α-helix between Leu2 and Val21 residues. In a recent study by Aragón-Muriel et al., it was reported that the Alyteserin-1 ...

[4] = system: P. aeruginosa ATCC9027; format: cell-based
Procedure: as §1

[5] = system: L. monocytogenes ATCCbaa751; format: cell-based
Procedure: as §1

[6] = system: S. aureus ATCC29213 (MSSA, ampicillin-resistant); format: cell-based, Staphylococcus aureus
Procedure: as §1

[7] = system: S. aureus ATCC43300 (MRSA); format: cell-based, Staphylococcus aureus
Procedure: as §1

[8] = system: B. cereus ATCC11778; format: cell-based
Procedure: as §1

[9] = system: S. typhimurium ATCC14028; format: cell-based
Procedure: as §1

Row | Substance | MIC E. coli ATCC25922 [1] [µM] | MIC S. aureus ATCC25923 [2] [µM] | HC50 human erythrocytes [3] [µM] | MIC P. aeruginosa ATCC9027 [4] [µM] | MIC L. monocytogenes ATCCbaa751 [5] [µM] | MIC S. aureus ATCC29213 [6] [µM] | MIC S. aureus ATCC43300 [7] [µM] | MIC B. cereus ATCC11778 [8] [µM] | MIC S. typhimurium ATCC14028 [9] [µM]
1 | GLKEIFKAGLGSLVKGIAAHVAS-NH2 [WT, Alyteserin-1c, reference compound] | 15.2 | 250 | 220 | 31.3 | 125 |  |  |  | 
2 | GLKRIFKSGLGKLVKGISAHVAS-NH2 [ΔM] | 62.5 | 62.5 |  |  | 62.5 | 250 | 250 | 125 | 125
